Experiment [1] relates to DU-4475 (Breast Carcinoma). Nature of the experiment: combination Emax (second highest fraction inhibited in the dose matrix, 72 h); higher = more inhibition; extreme values may be limits of the assay. A digest of the protocol: (§1)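 Bliss excess equals the observed combination effect minus the expected value EA + EB − EA·EB, where EA and EB are the effects of each agent alone. Combination Emax is the second-highest inhibition within the matrix. Inhibition was scaled from CellTiter-Glo 2.0 luminescence, with 0 set by vehicle wells and 1 by blank wells, after 72 hours of two-drug dosing of cells plated in 1536-well plates.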

Experiment [2] has as its system CA46 (Burkitt's Lymphoma). The description is as above. Put shortly: as §1
In the next experiment the test system is IM-9 (Non-Cancerous). The description is as above. Put shortly:
as §1

In experiment [3] the test system is G-402 (Other Solid Carcinomas). Described as above. Put shortly: as §1
A further experiment relates to EB2 (Burkitt's Lymphoma). The experiment is described as above. Put shortly:
as §1

The test system of experiment [4] is JVM-2 (B-Cell Non-Hodgkin's Lymphoma). The experiment is described as above. Put shortly:
as §1

Experiment [5] concerns SK-HEP-1 (Hepatocellular Carcinoma). The description is as above. Put shortly:
as §1

Experiment [6] deals with KYSE-140 (Esophageal Squamous Cell Carcinoma). The experiment is described as above. A digest of the protocol: as §1
Experiment [7] has as its system CESS (Acute Myeloid Leukemia). Described as above. A digest of the protocol:
as §1

The subject of experiment [8] is NCI-H2087 (Lung Adenocarcinoma). The description is as above. A digest of the protocol:
as §1

The test system of experiment [9] is MHH-ES-1 (Ewing's Sarcoma). The description is as above. Put shortly:
as §1

Experiment [10] deals with HCC70 (Breast Carcinoma). The description is as above. Put shortly: as §1
In the next experiment the test system is RH-41 (Rhabdomyosarcoma). The description is as above. Put shortly: as §1
In experiment [11] the test system is HCC1428 (Breast Carcinoma). The experiment is described as above. A digest of the protocol: as §1
The test system of experiment [12] is CAL-27 (Oral Cavity Carcinoma). The description is as above. Put shortly:
as §1

The test system of experiment [13] is JHU-022 (Oral Cavity Carcinoma). Nature of the experiment: Bliss excess, mean over the matrix (fraction); higher = more synergy. Put shortly: as §1
In experiment [14] the test system is NCI-H2228 (Lung Adenocarcinoma). The description is as above. Put shortly:
as §1

Experiment [15] has as its system OACp4C (Esophageal Adenocarcinoma). The experiment is described as above. Put shortly:
as §1

For experiment [16], the system named is HT55 (Colorectal Carcinoma). Described as above. Put shortly: as §1
For experiment [17], the system named is HCC70 (Breast Carcinoma). The description is as above. A digest of the protocol: as §1

For `COc1nnc2ccc(N3CCC(c4ccc(OCCN5CCN(C)C(=O)[C@H]5C)cc4)CC3)nn12` [AZD5153] + CC1(C)CCC(CN2CCN(c3ccc(C(=O)NS(=O)(=O)c4ccc(NCC5CCOCC5)c([N+](=O)[O-])c4)c(Oc4cnc5[nH]ccc5c4)c3)CC2)=C(c2ccc(Cl)cc2)C1 [Venetoclax] (first compound max 1 µM, 7x7, partner max 1 µM), the “combination Emax” value turned out to be 0.8 in experiment [1]; 0.658 in experiment [2]; 0.859 in the experiment with IM-9 (Non-Cancerous); 0.769 in experiment [3]; 0.559 in the experiment with EB2 (Burkitt's Lymphoma); 0.739 in experiment [4]. Moreover, the “combination Emax” value in experiment [5] was 0.485; in [6], 0.603; in experiment [7] it was 0.638; in [8], 0.389; in experiment [9] it was 0.682; in the experiment on HCC70 (Breast Carcinoma) [10], 0.309. Besides, the “combination Emax” value in the experiment with RH-41 (Rhabdomyosarcoma) is 0.909; in [11] it was 0.621; in [12], 0.504. Besides, the Bliss excess was -0.0043 in [13]; -0.0523 in experiment [14]; -0.0242 in experiment [15]; -0.0387 in [16]; -0.0013 with HCC70 (Breast Carcinoma) [17].
Regarding `NC1(C(=O)N[C@@H](CCO)c2ccc(Cl)cc2)CCN(c2ncnc3[nH]ccc23)CC1` [Capivasertib] + C[C@@H]1COCCN1C2=NC(=NC(=C2)C3(CC3)[S@](=N)(=O)C)C4=C5C=CNC5=NC=C4 [AZD6738] (first compound max 10 µM, 7x7, partner max 10 µM), the “combination Emax” value in experiment [1] was determined as 0.987; in [2], 0.474; in the experiment on IM-9 (Non-Cancerous) it was 0.979; in experiment [3] it was 0.771; with EB2 (Burkitt's Lymphoma) it was 0.831; in [4], 0.864. The “combination Emax” value in experiment [5] amounted to 0.318; in [6], 0.867; in experiment [7], 0.91; in [8] it was 0.486; in [9], 0.645; with HCC70 (Breast Carcinoma) [10], 0.817. In addition, the entries for the “combination Emax” value (with RH-41 (Rhabdomyosarcoma); in [11]; in [12]) were 0.976, 0.318 and 0.58, respectively. The Bliss excess was -0.041 in [13]; -0.0617 in [14]; -0.0402 in [15]; -0.0531 in experiment [16]; -0.0586 in the experiment on HCC70 (Breast Carcinoma) [17].
As to `Cn1cnc2c(F)c(Nc3ccc(Br)cc3Cl)c(C(=O)NOCCO)cc21` [Selumetinib] + C[C@@H]1COCCN1C2=NC(=NC(=C2)C3(CC3)[S@](=N)(=O)C)C4=C5C=CNC5=NC=C4 [AZD6738] (first compound max 10 µM, 7x7, partner max 10 µM), the “combination Emax” value was determined as 1 in [1]; 0.579 in [2]; 0.981 in the experiment with IM-9 (Non-Cancerous); 0.645 in [3]; 0.755 with EB2 (Burkitt's Lymphoma); 0.825 in experiment [4]. Also, the “combination Emax” value is 0.223 in [5]; 0.786 in [6]; 0.815 in [7]; 0.661 in experiment [8]; 0.525 in [9]; 0.778 in the experiment on HCC70 (Breast Carcinoma) [10]. For the same molecule, the “combination Emax” value in the experiment on RH-41 (Rhabdomyosarcoma) turned out to be 0.736; in experiment [11] it was 0.187; in experiment [12], 0.63. The Bliss excess in [13] is -0.0175; in experiment [14], -0.0098; in [15] it was -0.0052; in experiment [16] it was 0.004; in the experiment with HCC70 (Breast Carcinoma) [17], 0.0731.
In the case of `Cc1c2c(nn1C)CSCc1cc(n(C)n1)CSc1cc(c3ccccc3c1)OCCCc1c(C(=O)O)n(C)c3c-2c(Cl)ccc13` [AZD5991] + C[C@@H]1COCCN1C2=NC(=NC(=C2)C3(CC3)[S@](=N)(=O)C)C4=C5C=CNC5=NC=C4 [AZD6738] (first compound max 1 µM, 7x7, partner max 10 µM), the “combination Emax” value in [1] was found to be 0.978; in [2] it was 0.449; in the experiment on IM-9 (Non-Cancerous) it was 1; in [3] it was 0.995; in the experiment with EB2 (Burkitt's Lymphoma), 0.8; in experiment [4] it was 0.912. The “combination Emax” value in [5] stood at 0.354; in experiment [6], 0.925; in experiment [7] it was 0.958; in experiment [8], 0.588; in experiment [9], 0.837; with HCC70 (Breast Carcinoma) [10], 0.967. Also, the “combination Emax” value with RH-41 (Rhabdomyosarcoma) worked out at 1; in [11], 0.974; in experiment [12], 1. In addition, the Bliss excess in experiment [13] was -0.0118; in experiment [14], -0.0302; in experiment [15] it was 0.0108; in experiment [16], 0.0901; in the experiment on HCC70 (Breast Carcinoma) [17], -0.0069.
`COc1cccc(OCCCN)c1-c1cc(Nc2cnc(C#N)cn2)n[nH]1` [Prexasertib] + CN(C)CCCOc1ccc(-c2ccc3ncc4c(c3c2)n(C2CCOCC2)c(=O)n4C)cn1 [AZD0156] (first compound max 1 µM, 7x7, partner max 1 µM): the “combination Emax” value in [1] came to 0.951; in experiment [2], 0.745; in the experiment with IM-9 (Non-Cancerous) it was 1; in experiment [3], 0.562; with EB2 (Burkitt's Lymphoma) it was 0.909; in [4] it was 0.949. Moreover, the “combination Emax” value in experiment [5] amounted to 0.379; in experiment [6], 0.959; in [7] it was 0.975; in [8] it was 0.761; in experiment [9] it was 0.722; in the experiment on HCC70 (Breast Carcinoma) [10], 0.922. Besides, the “combination Emax” value with RH-41 (Rhabdomyosarcoma) was 0.944; in experiment [11] it was 0.408; in experiment [12], 0.421. The Bliss excess in experiment [13] is -0.0231; in experiment [14], -0.0488; in experiment [15], -0.0162; in experiment [16], 0.0444; in the experiment on HCC70 (Breast Carcinoma) [17], -0.0319.
Regarding `COc1cccc(OCCCN)c1-c1cc(Nc2cnc(C#N)cn2)n[nH]1` [Prexasertib] + Cc1cc2ncnn2cc1Nc1ncc2c(n1)n(C1CCOCC1)c(=O)n2C [AZD7648] (first compound max 1 µM, 7x7, partner max 10 µM), the “combination Emax” value in experiment [1] came to 0.963; in [2] it was 0.653; in the experiment on IM-9 (Non-Cancerous), 1; in experiment [3] it was 0.58; with EB2 (Burkitt's Lymphoma) it was 0.92; in experiment [4] it was 0.956. In addition, the “combination Emax” value in experiment [5] came to 0.296; in experiment [6], 0.953; in [7], 0.971; in experiment [8], 0.801; in experiment [9], 0.742; in the experiment with HCC70 (Breast Carcinoma) [10], 0.922. Besides, the “combination Emax” value with RH-41 (Rhabdomyosarcoma) was determined as 0.964; in experiment [11], 0.345; in experiment [12], 0.426. In addition, the Bliss excess in [13] is -0.0661; in experiment [14], -0.0487; in experiment [15], 0.0093; in [16], -0.0102; with HCC70 (Breast Carcinoma) [17], -0.0053.
As to `COc1nnc2ccc(N3CCC(c4ccc(OCCN5CCN(C)C(=O)[C@H]5C)cc4)CC3)nn12` [AZD5153] + Cc1c2c(nn1C)CSCc1cc(n(C)n1)CSc1cc(c3ccccc3c1)OCCCc1c(C(=O)O)n(C)c3c-2c(Cl)ccc13 [AZD5991] (first compound max 1 µM, 7x7, partner max 1 µM), the “combination Emax” value in [1] was determined as 0.974; in experiment [2], 0.64; in the experiment with IM-9 (Non-Cancerous), 0.886; in experiment [3], 0.987; in the experiment with EB2 (Burkitt's Lymphoma) it was 0.608; in [4], 0.711. The “combination Emax” value in experiment [5] stood at 0.583; in experiment [6], 0.603; in experiment [7] it was 0.76; in experiment [8] it was 0.453; in experiment [9], 0.911; in the experiment with HCC70 (Breast Carcinoma) [10], 0.96. Also, the figures for the “combination Emax” value (in the experiment on RH-41 (Rhabdomyosarcoma); in experiment [11]; in experiment [12]) were 1, 0.984 and 1, respectively. For the same molecule, the Bliss excess in experiment [13] was -0.0703; in experiment [14] it was -0.0261; in [15] it was 0.0438; in experiment [16], -0.0445; in the experiment with HCC70 (Breast Carcinoma) [17], 0.0638.
